What was measured:
[1] = tested on: Cabbage Looper (Trichoplusia ni) ("CL"), second instar larvae; experiment: Bioassay on cabbage looper (CL), 128-well diet tray assay; format: in vivo; settings: for pest or weed control at 50 µg/cm2: Trichoplusia ni, read-out: CL rating; for CL rating: Table ABC, species CL, C = not tested, D = no activity noticed
Method in brief: (§1)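 Second-instar larvae on diet in 128-well trays, covered and held at 25° C, 14:10 light-dark, for five to seven days. Percent mortality scored per well and averaged over eight wells; activity reported as a rating category.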

[2] = tested on: Beet Armyworm (Spodoptera exigua) ("BAW"), second instar larvae; experiment: Bioassay on beet armyworm (BAW), 128-well diet tray assay; format: in vivo; settings: for pest or weed control at 50 µg/cm2: Spodoptera exigua, read-out: BAW rating; for BAW rating: Table ABC, species BAW, C = not tested, D = no activity noticed
Method in brief: as §1

SMILES	pest or weed control at 50 µg/cm2 [1] [%]	pest or weed control at 50 µg/cm2 [2] [%]	CL rating [1]	BAW rating [2]
CC(=O)c1cc(-c2ncn(-c3ccc(OC(F)(F)F)cc3)n2)ccc1NC(=O)/N=C1\SCC(=O)N1c1cc(C)ccc1COCC(F)(F)F [Compound J398, (Z)-1-(2-Acetyl-4-(1-(4-(trifluoromethoxy)phenyl)-1H-1,2,4-triazol-3-yl)phenyl)-3-(3-(5-methyl-2-((2,2,2-trifluoroethoxy)methyl)phenyl)-4-oxothiazolidin-2-ylidene)urea]	50 to 100	50 to 100	–	–
CC(=O)c1cc(-c2ncn(-c3ccc(OC(F)(F)F)cc3)n2)ccc1NC(=O)/N=C1\SCC(=O)N1c1cc(C)ccc1OCCC(F)(F)F [Compound J399, (Z)-1-(2-Acetyl-4-(1-(4-(trifluoromethoxy)phenyl)-1H-1,2,4-triazol-3-yl)phenyl)-3-(3-(5-methyl-2-(3,3,3-trifluoropropoxy)phenyl)-4-oxothiazolidin-2-ylidene)urea]	50 to 100	50 to 100	–	–
Cc1ccc(COCC(F)F)c(N2C(=O)CS/C2=N\C(=O)Nc2ccc(-c3ncn(-c4ccc(C(F)(F)F)cn4)n3)cc2F)c1 [Compound J400]	–	–	A (50-100)	A (50-100)
Cc1ccc(COCC(F)F)c(N2C(=O)CS/C2=N\C(=O)Nc2ccc(-c3ncn(-c4ccc(OC(F)(F)F)cc4)n3)cc2F)c1 [Compound J401]	50 to 100	50 to 100	–	–
Cc1ccc(OCCC(F)(F)F)c(N2C(=O)CS/C2=N\C(=O)Nc2ccc(-c3ncn(-c4ccc(S(=O)(=O)C(F)(F)F)cc4)n3)cc2C#N)c1 [Compound J402, (Z)-1-(2-cyano-4-(1-(4-((trifluoromethyl)sulfonyl)phenyl)-1H-1,2,4-triazol-3-yl)phenyl)-3-(3-(5-methyl-2-(3,3,3-trifluoropropoxy)phenyl)-4-oxothiazolidin-2-ylidene)urea]	50 to 100	50 to 100	–	–
Cc1ccc(COCC(F)(F)F)c(N2C(=O)CS/C2=N\C(=O)Nc2ccc(-n3cnc(-c4ccc(OC(F)(F)F)cc4)n3)cc2)c1 [Compound J403, (Z)-1-(3-(5-Methyl-2-((2,2,2-trifluoroethoxy)methyl)phenyl)-4-oxothiazolidin-2-ylidene)-3-(4-(3-(4-(trifluoromethoxy)phenyl)-1H-1,2,4-triazol-1-yl)phenyl)urea]	50 to 100	50 to 100	–	–
Cc1ccc(OCCC(F)(F)F)c(N2C(=O)CS/C2=N\C(=O)Nc2ccc(-n3cnc(-c4ccc(OC(F)(F)F)cc4)n3)cc2)c1 [Compound J404, (Z)-1-(3-(5-Methyl-2-(3,3,3-trifluoropropoxy)phenyl)-4-oxothiazolidin-2-ylidene)-3-(4-(3-(4-(trifluoromethoxy)phenyl)-1H-1,2,4-triazol-1-yl)phenyl)urea]	50 to 100	50 to 100	–	–
COC(c1ccc(C)cc1N1C(=O)CS/C1=N\C(=O)Nc1ccc(-n2cnc(-c3ccc(OC(F)(F)F)cc3)n2)cc1)C(F)(F)F (stereo not drawn) [Compound J405, (Z)-1-(3-(5-Methyl-2-(2,2,2-trifluoro-1-methoxyethyl)phenyl)-4-oxothiazolidin-2-ylidene)-3-(4-(3-(4-(trifluoromethoxy)phenyl)-1H-1,2,4-triazol-1-yl)phenyl)urea]	50 to 100	50 to 100	–	–
N#Cc1ccc(OCCC(F)(F)F)c(N2C(=O)CS/C2=N\C(=O)Nc2ccc(-n3cnc(-c4ccc(OC(F)(F)F)cc4)n3)cc2)c1 [Compound J406, (Z)-1-(3-(5-Cyano-2-(3,3,3-trifluoropropoxy)phenyl)-4-oxothiazolidin-2-ylidene)-3-(4-(3-(4-(trifluoromethoxy)phenyl)-1H-1,2,4-triazol-1-yl)phenyl)urea]	50 to 100	50 to 100	–	–
CC(C)c1ccc(C#N)cc1N1C(=O)CS/C1=N\C(=O)Nc1ccc(-n2cnc(-c3ccc(OC(F)(F)F)cc3)n2)cc1 [Compound J407, (Z)-1-(3-(5-Cyano-2-isopropylphenyl)-4-oxothiazolidin-2-ylidene)-3-(4-(3-(4-(trifluoromethoxy)phenyl)-1H-1,2,4-triazol-1-yl)phenyl)urea]	50 to 100	50 to 100	–	–
CC(C)c1ccc(N(C)C)cc1N1C(=O)CS/C1=N\C(=O)Nc1ccc(-n2cnc(-c3ccc(OC(F)(F)F)cc3)n2)cc1 [Compound J408, (Z)-1-(3-(5-(Dimethylamino)-2-isopropylphenyl)-4-oxothiazolidin-2-ylidene)-3-(4-(3-(4-(trifluoromethoxy)phenyl)-1H-1,2,4-triazol-1-yl)phenyl)urea]	50 to 100	50 to 100	–	–
CCCc1ccc(N(C)C)cc1N1C(=O)CS/C1=N\C(=O)Nc1ccc(-n2cnc(-c3ccc(OC(F)(F)F)cc3)n2)cc1 [Compound J409, (Z)-1-(3-(5-(Dimethylamino)-2-propylphenyl)-4-oxothiazolidin-2-ylidene)-3-(4-(3-(4-(trifluoromethoxy)phenyl)-1H-1,2,4-triazol-1-yl)phenyl)urea]	50 to 100	50 to 100	–	–
CC(C)c1cc(F)c(N(C)C)cc1N1C(=O)CS/C1=N\C(=O)Nc1ccc(-n2cnc(-c3ccc(OC(F)(F)F)cc3)n2)cc1 [Compound J410, (Z)-1-(3-(5-(Dimethylamino)-4-fluoro-2-isopropylphenyl)-4-oxothiazolidin-2-ylidene)-3-(4-(3-(4-(trifluoromethoxy)phenyl)-1H-1,2,4-triazol-1-yl)phenyl)urea]	50 to 100	50 to 100	–	–
CC(C)c1ccc(C#N)cc1N1C(=O)CS/C1=N\C(=O)Nc1ccc(-c2ncn(-c3ccc(S(=O)(=O)C(F)(F)F)cc3)n2)cc1C#N [Compound J413, (Z)-1-(3-(5-Cyano-2-isopropylphenyl)-4-oxothiazolidin-2-ylidene)-3-(2-cyano-4-(1-(4-((trifluoromethyl)sulfonyl)phenyl)-1H-1,2,4-triazol-3-yl)phenyl)urea]	50 to 100	50 to 100	–	–
CC(C)c1ccc(N(C)C)cc1N1C(=O)CS/C1=N\C(=O)Nc1ccc(-c2ncn(-c3ccc(S(=O)(=O)C(F)(F)F)cc3)n2)cc1C#N [Compound J414, (Z)-1-(2-Cyano-4-(1-(4-((trifluoromethyl)sulfonyl)phenyl)-1H-1,2,4-triazol-3-yl)phenyl)-3-(3-(5-(dimethylamino)-2-isopropylphenyl)-4-oxothiazolidin-2-ylidene)urea]	50 to 100	50 to 100	–	–
Cc1ccc(COCC(F)F)c(N2C(=O)CS/C2=N\C(=O)Nc2ccc(-c3ncn(-c4ccc(OC(F)(F)F)cc4)n3)cc2C)c1 [Compound J420]	–	–	A (50-100)	A (50-100)
CCC(OC)c1ccc(C)cc1N1C(=O)CS/C1=N\C(=O)Nc1ccc(-c2ncn(-c3ccc(OC(F)(F)F)cc3)n2)cc1F (stereo not drawn) [Compound J421]	50 to 100	50 to 100	–	–
Cc1ccc(COCC(F)(F)F)c(N2C(=O)CS/C2=N\C(=O)Nc2ccc(-c3ncn(-c4ccc(S(F)(F)(F)(F)F)cc4)n3)cc2F)c1 [Compound J422]	–	–	A (50-100)	A (50-100)
COC(C)c1ccc(C)cc1N1C(=O)CS/C1=N\C(=O)Nc1ccc(-c2ncn(-c3ccc(S(F)(F)(F)(F)F)cc3)n2)cc1F (stereo not drawn) [Compound J423]	–	–	A (50-100)	A (50-100)
Cc1ccc(COCC(F)(F)F)c(N2C(=O)CS/C2=N\C(=O)Nc2ccc(-c3ncn(-c4ccc(CC#N)cc4)n3)cc2F)c1 [Compound J425, (Z)-1-(4-(1-(4-(Cyanomethyl)phenyl)-1H-1,2,4-triazol-3-yl)-2-fluorophenyl)-3-(3-(5-methyl-2-((2,2,2-trifluoroethoxy)methyl)phenyl)-4-oxothiazolidin-2-ylidene)urea]	50 to 100	50 to 100	–	–
COC(C)c1ccc(C)cc1N1C(=O)CS/C1=N\C(=O)Nc1ccc(-c2noc(-c3ccc(OC(F)(F)F)cc3)n2)cc1F (stereo not drawn) [Compound J426, (Z)-1-(2-Fluoro-4-(5-(4-(trifluoromethoxy)phenyl)-1,2,4-oxadiazol-3-yl)phenyl)-3-(3-(2-(1-methoxyethyl)-5-methylphenyl)-4-oxothiazolidin-2-ylidene)urea]	50 to 100	50 to 100	–	–
Cc1ccc(COCC(F)(F)F)c(N2C(=O)CS/C2=N\C(=O)Nc2ccc(-c3nc(-c4ccc(OC(F)(F)F)cc4)no3)cc2F)c1 [Compound J427, (Z)-1-(2-Fluoro-4-(3-(4-(trifluoromethoxy)phenyl)-1,2,4-oxadiazol-5-yl)phenyl)-3-(3-(5-methyl-2-((2,2,2-trifluoroethoxy)methyl)phenyl)-4-oxothiazolidin-2-ylidene)urea]	50 to 100	50 to 100	–	–
COC(c1ccc(C)cc1N1C(=O)CS/C1=N\C(=O)Nc1ccc(-c2nc(-c3ccc(OC(F)(F)F)cc3)no2)cc1F)C(F)(F)F (stereo not drawn) [Compound J428, (Z)-1-(2-Fluoro-4-(3-(4-(trifluoromethoxy)phenyl)-1,2,4-oxadiazol-5-yl)phenyl)-3-(3-(5-methyl-2-(2,2,2-trifluoro-1-methoxyethyl)phenyl)-4-oxothiazolidin-2-ylidene)urea]	50 to 100	50 to 100	–	–
COC(C)c1ccc(C)cc1N1C(=O)CS/C1=N\C(=O)Nc1ccc(-c2nnc(-c3ccc(OC(F)(F)F)cc3)o2)cc1F (stereo not drawn) [Compound J429, (Z)-1-(2-Fluoro-4-(5-(4-(trifluoromethoxy)phenyl)-1,3,4-oxadiazol-2-yl)phenyl)-3-(3-(2-(1-methoxyethyl)-5-methylphenyl)-4-oxothiazolidin-2-ylidene)urea]	50 to 100	50 to 100	–	–
